According to paper PMC6199744, “Development of Chemical Proteomics for the Folateome and Analysis of the Kinetoplastid Folateome” (ACS Infectious Diseases, 2018):
Where “and” joins values, the source holds several entries; their conditions need not be identical. Identical values can stand only once. Like-named read-outs stand apart in the source and are kept apart here.

Test system: L. major lysate proteins
Test: Multitargeted bead mixture chemoproteomics, single concentration competition, proteome-wide
Format: binding
Settings: for fold change: vehicle control = 1

Nc1nc2c(c(=O)[nH]1)N(C=O)C(CNc1ccc(C(=O)N[C@@H](CCC(=O)O)C(=O)O)cc1)CN2 (some centres unmarked) [LEU, leucovorin]
fold change relative to vehicle control: 1.05 and 1.2 and 1.04 | fold change vs vehicle control: 0.97 and 1.04 | fold change vs vehicle control (protein CLI00016468.1 KINETOPLASTID MEMBRANE PROTEIN-11): 0.87 | fold change vs vehicle control (protein LINJ.03.0240 RIBOSOMAL PROTEIN L38, PUTATIVE): 0.99 | fold change vs vehicle control (protein LINJ.11.0780 40S RIBOSOMAL PROTEIN S21, PUTATIVE): 1.06 | fold change (protein LINJ.11.0960 40S RIBOSOMAL PROTEIN S5): 1.08 | fold change vs vehicle control (protein LINJ.13.0990 PROTEASOME REGULATORY ATPASE SUBUNIT 2, PUTATIVE): 0.99 | fold change vs vehicle control (protein LINJ.15.0330 RIBONUCLEOPROTEIN P18, MIT[…], PUTATIVE): 1.01 | fold change (protein LINJ.19.0090 FIBRILLARIN, PUTATIVE): 0.98 | fold change relative to vehicle control (protein LINJ.23.0860, 3-KETOACYL-COA THIOLASE, PUTATIVE): 1.25 | fold change relative to vehicle control (protein LINJ.24.2300, 60S RIBOSOMAL PROTEIN L12, PUTATIVE): 1.07 | fold change vs vehicle control (protein LINJ.25.2230 SUCCINYL-COA […] SUBUNIT, PUTATIVE): 1.12 | fold change vs vehicle control (protein LINJ.26.1630 40S RIBOSOMAL PROTEIN S33, PUTATIVE): 0.97 | fold change vs vehicle control (protein LINJ.28.1100 RIBOSOMAL PROTEIN S20, PUTATIVE): 0.97 | fold change relative to vehicle control (protein LINJ.28.1940, R[…] A, 51KDA SUBUNIT, PUTATIVE): 1.01 | fold change (protein LINJ.28.2280 DYNEIN LIGHT CHAIN LC6, FLAGELLAR OUTER ARM, PUTATIVE): 0.84 | fold change (protein LINJ.28.2870 PROTEIN PHOSPHATASE 4 CATALYTIC SUBUNIT, PUTATIVE): 0.86 | fold change relative to vehicle control (protein LINJ.31.1600, […] OXIDASE VIII (COX VIII), PUTATIVE): 0.98 | fold change relative to vehicle control (protein LINJ.33.1730, CYCLOPHILIN 4, PUTATIVE): 1.85 | fold change vs vehicle control (protein LINJ.34.0670 PROTEASOME REGULATORY NON-ATP-ASE SUBUNIT 11, PUTATIVE,19S PROTEASOME REGULATORY SUBUNIT): 0.93 | fold change vs vehicle control (protein LINJ.36.0780 PROTEIN KINASE, PUTATIVE,MITOGEN-ACTIVATED PROTEIN KINASE, PUTATIVE): 0.84 | fold change relative to vehicle control (protein LINJ.36.3960, BASIC TRANSCRIPTION FACTOR 3A, PUTATIVE): 2.31 | fold change relative to vehicle control (protein LINJ.36.4080, HY[…], CONSERVED): 1.26 | fold change (protein LINJ.36.4180 HS1VU COMPLEX PROTEOLYTIC SUBUNIT-LIKE): 0.87 | fold change vs vehicle control (protein LINJ.[…] LONG-CHAIN-FATTY-ACID-COA LIGASE, PUTATIVE): 1.05 | fold change (protein LMJF.01.0570 TRIC[…], PUTATIVE): 0.89 | fold change relative to vehicle control (protein LMJF.03.0200, DELTA-1-PYRROLINE-5-CARBOXYLATE DEHYDROGENASE, PUTATIVE): 1.13 | fold change (protein LMJF.03.0230 LONG CHAIN FATTY ACYL COA SYNTHETASE, PUTATIVE): 0.93 | fold change (protein LMJF.03.0980 ELONGATION INITIATION FACTOR 2 ALPHA SUBUNIT, PUTATIVE): 1 | fold change vs vehicle control (protein LMJF.04.0630 HY[…], CONSERVED): 1.02 | fold change vs vehicle control (protein LMJF.04.1230 actin): 0.94 | fold change (protein LMJF.05.0100 PHOSPHOPROTEIN PHOSPHATASE, PUTATIVE): 0.74 | fold change (protein LMJF.05.0280 PROTEIN TYROSINE PHOSPHATASE, PUTATIVE): 0.85 | fold change (protein LMJF.05.0510 ATPASE ALPHA SUBUNIT): 1 | fold change (protein LMJF.05.1040 STOMATIN-LIKE PROTEIN): 0.94 | fold change (protein LMJF.06.0650 LANOSTEROL SYNTHASE, PUTATIVE): 0.97 | fold change vs vehicle control (protein LMJF.07.0700 TOPOISOMERASE-RELATED FUNCTION PROTEIN-LIKE PROTEIN): 1.01 | fold change (protein LMJF.07.1000 RNA BINDING PROTEIN-LIKE PROTEIN): 1.02 | fold change relative to vehicle control (protein LMJF.07.1140, PEPTIDE METHIONINE SULFOXIDE REDUCTASE-LIKE): 1.3 | fold change (protein LMJF.08.0510 RIBOSE-PHOSPHATE PYROPHOSPHOKINASE, PUTATIVE): 0.82 | fold change vs vehicle control (protein LMJF.08.0550 T[…]-LIKE PROTEIN): 1.05 | fold change relative to vehicle control (protein LMJF.08.1030, cathepsin L-like protease): 1.06 | fold change vs vehicle control (protein LMJF.08.1100 HYPOTHETICAL PROTEIN, CONSERVED): 0.91 | fold change vs vehicle control (protein LMJF.09.1010 HYPOTHETICAL PROTEIN, CONSERVED): 0.98 | fold change relative to vehicle control (protein LMJF.09.1120, MIT[…] BINDING PROTEIN 2,MRP2, GBP25): 1.22 | fold change vs vehicle control (protein LMJF.09.1260 HY[…], CONSERVED): 1.02 | fold change (protein LMJF.10.0210 NUCLEOLAR PROTEIN, PUTATIVE): 0.98 | fold change vs vehicle control (protein LMJF.10.0310 PROTEIN TRANSPORT PROTEIN SEC23, PUTATIVE): 1.08 | fold change (protein LMJF.11.0590 3-[…]-COA C[…] SUBUNIT, PUTATIVE): 0.98 | fold change relative to vehicle control (protein LMJF.11.0630, AMINOPEPTIDASE, PUTATIVE,METALLO-PEPTIDASE, CLAN MF, FAMILY M17): 1.23 | fold change vs vehicle control (protein LMJF.11.1050 PRETRANSLOCATION PROTEIN, ALPHA SUBUNIT, PUTATIVE,SEC61-LIKE (PRETRANSLOCATION PROCESS) PROTEIN, PUTATIVE): 0.89 | fold change (protein LMJF.11.1160 PROTEIN TRANSPORT PROTEIN SEC31, PUTATIVE): 0.83 | fold change (protein LMJF.12.0030 PROTEASOME BETA-1 SUBUNIT, PUTATIVE): 0.95 | fold change vs vehicle control (protein LMJF.12.0210 […] […]1L8 3, PUTATIVE): 1.05 | fold change relative to vehicle control (protein LMJF.12.0530, GLUCOSE-6-PHOSPHATE ISOMERASE): 1.53 | fold change (protein LMJF.12.0630 ALANINE AMINOTRANSFERASE): 0.86 | fold change vs vehicle control (protein LMJF.13.1230 40S RIBOSOMAL PROTEIN S4, PUTATIVE): 1.16 | fold change vs vehicle control (protein LMJF.14.0310 […] 3 SUBUNIT, PUTATIVE): 1.04 | fold change (protein LMJF.14.0660 FATTY ACID ELONGASE, PUTATIVE): 0.88 | fold change (protein LMJF.14.0670 FATTY ACID ELONGASE, PUTATIVE): 0.9 | fold change vs vehicle control (protein LMJF.14.0680 FATTY ACID ELONGASE, PUTATIVE): 1.06 | fold change (protein LMJF.14.0990 ADP/ATP MITOCHONDRIAL CARRIER-LIKE PROTEIN): 0.97 | fold change vs vehicle control (protein LMJF.14.1160 ENOLASE): 1.01 | fold change (protein LMJF.14.1440 HYPOTHETICAL PROTEIN, CONSERVED (cytoskeleton associated protein, putative)): 0.9 | fold change (protein LMJF.15.0040 HYPOTHETICAL PROTEIN, CONSERVED (Possible lysine decarboxylase, putative)): 0.89
